Measurements as given in US8445461B2, “Pharmaceutical composition for meniere's disease” (Setsuko Takeda, priority 2007, dated 2013).

Columns and labels:
[1] = tested on: guinea pigs excreting normal feces; experiment: Antidiarrheal effect: observation of feces after oral administration of saccharides or sugar alcohols with or without polysaccharides (Example 1); assay type: in vivo
Experimental: The criteria for analyzing the conditions of feces (hardness, shape and spaces of feces in the intestine) are as shown in Table 2:
The hardness and microscopic findings of feces from the group administered with distilled water were assessed as “Normal” scoring 3, the feces having normal shape and the shape could rather easily change by pushing with fingers were assessed as “Slightly soft” scoring 2, those of which the shape had already changed or it could quite easily change by pushed with fingers were assessed as “Soft” scoring 1, and those of which the shape is muddy or watery or of no shape were assessed “Muddy” scoring 0. To be precese, there are no watery feces because of the nature of diets and thus the muddy feces correspond to watery and muddy feces in human.
Since the muddy feces comprise large content of water, they induce the high abdominal pressure and the flatulence and distension. […] In the case of gas generation, it appears that noxious symptom such as the flatulence and distension are synergistically deteriorated. Therefore, we assessed not only based on the hardness of feces, but also the size, smoothness of the surface and amount of feces.
In these experiments, I observed is the diarrhea caused by saccharides or sugar alcohols and antidiarrhreal effect of saccharides. Guinea pigs orally received saccharides or sugar alcohols, for example tetrose such as erythritol, pentose such as xylitol or xylose, hexose such as isosorbitol or the like in combination with or without polysaccharides for observation of the feces up to 6 hours after the administration.
Guinea pigs (body weight 280 to 320 g, normal feces) were divided into four groups: for Group 1-a, xylitol alone (Reference Example 1), or xylitol and xanthan gum or pectin; for Group 1-b, xylose alone (Reference Example 2), xylose and xanthan gum or pectin; for Group 1-c, erythritol alone (Reference Example 3), erythritol and pectin, erythritol and xanthan gum, or erythritol, pectin and natural aluminum silicate gel or calcium carbonate; and for Group 1-d, isosorbitol alone (Reference Example 4), or isosorbitol and xanthan gum or pectin were orally administered, respectively. The compounds are dissolved in distilled water and 8 ml/kg of said solution were administered as a single dose.
The feces were observed during 6 hours after the administration. When the animals fell into the most serious condition, the hardness and shape of the feces from said animals were assessed as the effect by saccharides or sugar alcohols in the animals.

[2] = Volume of agent: volume, weight and particle size of formulations (Example 4); assay type: physicochemical; conditions: 21 g of erythritol
Experimental: When erythritol is administered to an adult (60 kg body weight), the single dose may be 10 to 80 g, preferably 20 to 60 g. When 21 g of erythritol is administered as powder, the volume may be about 53 ml. Alternatively, administered as saturated aqueous solution, it requires 65 ml of distilled water, and volume and weight thereof is 78 ml and 86 g, respectively. Carrying it to administer 3 times daily is inconvenient for a patient with Meniere's disease.
(§1) The volume of this gel formulation is 20.25 ml and the weight thereof is 36 g. By drying and grinding this gel formulation, the volume increases to 33 ml, however it is convenient for carrying. The particle size of dry milled powder is described in Table 44. If water (10 ml) is added thereto prior to use and mixed, a gel formulation (23 ml) is again obtained.
as §1, with “26.1” for “36”, “31.5 ml.” for “33 ml, however it is convenient for carrying.”, “(3” for “(10”, “(24” for “(23”

[3] = tested on: animal model of experimental endolymphatic hydrops; experiment: Reference Example 6: erythritol added polyvinylpyrrolidone, conditions of feces; assay type: in vivo, guinea pigs; conditions: erythritol 2.8 g/kg oral, alone or with PVP
Experimental: Guinea pigs (280 to 350 g of body weight, normal feces) received the surgical obliteration of the endolymphatic sac in the left ear to prepare an “animal model of experimental endolymphatic hydrops”. The surgery was performed as previously described in Non-patent Reference 8.
One month after, the animals orally received erythritol (2.8 g/kg) added polyvinylpyrrolidone (0.5 g/kg, about 7.1% by weight). […] The result is shown in FIG. 10 with comparing Group 4 in Example 2 (Animals were sacrificed 3 hours after the administration of erythritol 2.8 g/kg alone).

guinea pigs = experiment: Reference Example 7: erythritol or isosorbitol added jelly, conditions of feces and gastrointestinal tract; assay type: in vivo
Description: As described hereinbefore, erythritol or isosorbitol as saccharides or sugar alcohols added jelly as a thickner were orally administered to 10 guinea pigs (280 to 350 g body weight) as shown in Table 41. The conditions of feces were observed.

[4] = active agent 2.8 g/kg oral, alone or with additives of the label, most serious condition within 6 hours
[5] = agent 2.8 g/kg oral + Jelly 0.05 g/kg, 5 animals
[6] = agent 2.8 g/kg oral + Jelly 0.1 g/kg, 5 animals
[7] = agent 2.8 g/kg oral + Jelly 0.15 g/kg, 5 animals
[8] = agent 2.8 g/kg oral, no additive dosage (agent alone)

Compound: OC[C@@H](O)[C@@H](O)CO [Erythritol, erythritol]
- Time after administration of the peak (most serious) diarrhea ([1]; active agent 2.8 g/kg oral, alone or with additive of the label): Three hours after
- Hardness of feces: Hard (number of animals) [1, 4]: 0
- Hardness of feces: Muddy (number of animals) [1, 4]: 5
- Hardness of feces: Normal (number of animals) [1, 4]: 0
- Hardness of feces: Slightly soft (number of animals) [1, 4]: 0
- Hardness of feces: Soft (number of animals) [1, 4]: 0
- Animals in which muddy feces continued up to 6 hours after ([1]; erythritol 2.8 g/kg alone, 5 animals): 3
- Distilled water required for saturated aqueous solution [2]: 65 mL
- Volume as powder [2]: about 53 ml
- Volume of saturated aqueous solution [2]: 78 mL
- Weight of saturated aqueous solution [2]: 86 g
- Hardness of feces 0 (Muddy): number of animals [3]: 5
- Hardness of feces 1 (Soft): number of animals [3]: 0
- Hardness of feces 2 (Slightly soft): number of animals [3]: 0
- Hardness of feces 3 (Normal): number of animals [3]: 0
- Hardness of feces: Muddy (number of animals) (guinea pigs; [5]): 5
- Hardness of feces: Normal (number of animals) (guinea pigs; [5]): 0
- Hardness of feces: Slightly soft (number of animals) (guinea pigs; [5]): 0
- Hardness of feces: Soft (number of animals) (guinea pigs; [5]): 0
- Hardness of feces: Muddy (number of animals) (guinea pigs; [6]): 5
- Hardness of feces: Normal (number of animals) (guinea pigs; [6]): 0
- Hardness of feces: Slightly soft (number of animals) (guinea pigs; [6]): 0
- Hardness of feces: Soft (number of animals) (guinea pigs; [6]): 0
- Hardness of feces: Muddy (number of animals) (guinea pigs; [7]): 5
- Hardness of feces: Normal (number of animals) (guinea pigs; [7]): 0
- Hardness of feces: Slightly soft (number of animals) (guinea pigs; [7]): 0
- Hardness of feces: Soft (number of animals) (guinea pigs; [7]): 0
- Hardness of feces: Muddy (number of animals) (guinea pigs; [8]): 5
- Hardness of feces: Normal (number of animals) (guinea pigs; [8]): 0
- Hardness of feces: Slightly soft (number of animals) (guinea pigs; [8]): 0
- Hardness of feces: Soft (number of animals) (guinea pigs; [8]): 0
